According to a melting point compilation (Tetko et al.; mined from patent text by program, amines drawn as free bases though some values may be those of a salt):

First: CCCCc1nc(C(=O)O)c(S(=O)(=O)c2ccccc2)n1Cc1ccc(-c2ccccc2C(=O)O)cc1
Second: OCc1ccc(-c2nn(Cc3ccccc3)c3ccccc23)cc1
The melting point of the first is higher: 155 °C for the first, 110 to 112 °C for the second.

`COc1ccc(Nc2nc(-c3ccccc3)cc(N3CCC(O)CC3)n2)cc1Cl` and `Clc1ccc(Nc2nc3ccccc3c3[nH]c(C4CCCCC4)nc23)cc1Cl` cannot be ordered by melting point: 220 to 240 °C for the first, 237 to 240 °C for the second.

First: COCOc1ccc(C=CC(=O)c2ccc(OCc3ccccc3)cc2OC(C)=O)c(OCc2ccccc2)c1
Second: O=C(O)COc1cccc(NCc2nc(-c3ccccc3)c(-c3ccccc3)o2)c1
The melting point of the first is lower: 94 to 96 °C for the first, 146 to 151 °C for the second.

`CCn1c2ccc(C)cc2c(=O)c2c1cnn2C` and `Cc1nc(=O)[nH]c2ccc(Cl)cc12` cannot be ordered by melting point: > 300 °C for the first, > 270 °C for the second.

First: COc1ccccc1NC(=O)Nc1cccc(-n2c(=O)c(CCC(=O)N(C)C)nc3cccnc32)c1
Second: O=C(O)COc1cccc2c1CC(S(=O)(=O)Cc1ccccc1)c1sc(-c3cccc(F)c3)nc1-2 (configuration not stated)
The melting point of the first is higher: 242 to 245 °C for the first, 215 to 217 °C for the second.

First: CCC(=O)c1cc(C(=O)OC)c(N)cc1C(F)(F)F
Second: CC(C)N(C(=O)COc1ccc(-c2ccc(C(=O)O)cc2C(F)(F)F)cc1)C(C)C
The melting point of the first is higher: 141 to 144 °C for the first, 132 to 134 °C for the second.

Compared with `CC(=O)C(Cl)=NNc1ccc(Oc2ccccc2)cc1`, `O=C(Oc1ccccc1)c1cccc([N+](=O)[O-])c1Cl` is lower in melting point: 108 to 111 °C for the first, 46 to 48 °C for the second.

First: CCN(CC)CCNc1ccc(-c2ccnc(Nc3cc(OC)c(OC)c(OC)c3)n2)cn1
Second: COc1cc(-c2nc3ccc(OCCN4CCOCC4)cc3n2Cc2ccccc2C(F)(F)F)cc(OC)c1OC
The melting point of the first is lower: 67 °C for the first, 175 °C for the second.

First: C[C@@H]1[C@@H](N)CN1c1c(F)cc2c(=O)c(C(=O)O)cn3c2c1OC[C@H]3C
Second: O=C(O)c1cn(-c2ccc(Cl)cc2)c2c(F)c(F)c(F)cc2c1=O
The melting point of the first is higher: 217 to 219 °C for the first, 117 to 118 °C for the second.

First: Cc1c(C(=O)Nc2ccc(N3CCC(N4CCCCC4)CC3)c(C#N)c2)cnn1-c1ccc(F)cc1
Second: Cc1cn(-c2ccc(F)cc2)c2ccc(Br)cc12
The melting point of the first is higher: 237 to 238 °C for the first, 97 to 98 °C for the second.

First: COc1cccc(C=CC(=O)C(=O)O)c1OC
Second: COc1cc2c3c(cccc3c1OC)C(=O)N(O)C2=O
The melting point of the first is lower: 136 to 138 °C for the first, 226 to 228 °C for the second.

Compared with `CC(C)c1cc(-c2ccc(F)c3ccccc23)nc(NCCNS(C)(=O)=O)n1`, `O=S(=O)(c1ccc(Cl)cc1)C(c1cc(F)ccc1F)c1cc(NCCO)ncc1Cl` (configuration not stated) is higher in melting point: 85 to 91 °C for the first, 168 to 169 °C for the second.

First: Cc1cc(C)c2c(c1C)OC(C)(CC#N)C2 (configuration not stated)
Second: COc1cc(SC(C)C)cc(C#N)c1N
The melting point of the first is lower: 58 to 59 °C for the first, 81 to 82 °C for the second.

First: CN(C)CC(=O)N1c2ccccc2NC(=O)c2cncnc21
Second: CN(C)CC(=O)N1CC(=Cc2ccccc2)C2=NN(C)C(c3ccccc3)C2C1 (configuration not stated)
The melting point of the first is higher: 208 to 210 °C for the first, 132 to 134 °C for the second.

First: C=CCN1CC(c2ccc(NC(=O)OCc3ccccc3)cc2F)CCS1(=O)=O (configuration not stated)
Second: Nc1ccc(C(=O)c2ccccc2)cc1C=O
The melting point of the first is higher: 138 to 140 °C for the first, 125 °C for the second.

First: O=C1CCC(c2ccc3[nH]c(-c4ccnnc4)cc3c2)=NN1
Second: Cc1cc(N)nc(CCc2nc3cc(-c4ccc(S(=O)(=O)N5CCCC5)cc4)cnc3[nH]2)c1
The melting point of the first is higher: > 300 °C for the first, 171 °C for the second.

First: CN=C1SC(=NOC(=O)NC)C(C)(C)S1
Second: CCOC(=O)c1nnc2ccc(NC3=CC(=O)CC(C)(C)C3)cc2c1O
The melting point of the first is lower: 68 to 70 °C for the first, 274 °C for the second.

First: Cc1ccc(-c2ccc(C(=O)Nc3ccc4nc(CN5C(C)(C)CCCC5(C)C)ccc4c3)cn2)cc1
Second: CC(=O)c1ccc(C2=C(c3ccc(S(C)(=O)=O)cc3)OC3(CCCC3)C2=O)cc1
The melting point of the first is higher: 246 to 247 °C for the first, 126 to 130 °C for the second.

First: NS(=O)(=O)c1ccc(-c2cc(-c3nc(-c4ccc(C(F)(F)F)nc4)cc(C(F)F)n3)ccn2)s1
Second: Cn1c(-c2cc(O)c3c(c2)C(=O)c2cccc(O)c2C3=O)nc2ccccc21
The melting point of the first is higher: 270 °C for the first, 266 to 267 °C for the second.

First: CCN(C1CC(C)(C)Oc2ccc(O)cc21)S(C)(=O)=O (configuration not stated)
Second: CC1(C)Oc2c(cc(Cl)c3oc(C(=O)O)cc(=O)c23)-c2ccc(S(=O)(=O)O)cc21
The melting point of the first is lower: 169 to 170 °C for the first, 257 to 259 °C for the second.

First: Nc1cccc(-c2ccc(C3=CCCN(Cc4ccccc4)C3)cc2)n1
Second: COc1ccc(Nc2ccn(-c3ccc(OCC(=O)O)cc3)n2)cc1
The melting point of the first is higher: 270 to 272 °C for the first, 163 to 165 °C for the second.

First: CC(C)(C)NC(=O)C(C#N)=NO
Second: CC(NC(=O)C(Cc1ccc(OCc2ccccc2)cc1)NC(=O)OC(C)(C)C)C(=O)O (configuration not stated)
The melting point of the first is higher: 218 to 219 °C for the first, 160 to 162 °C for the second.

Compared with `CSc1ccc(/C=C2\C=C(CCN(O)C(N)=O)c3ccccc32)cc1`, `Nc1ccc(C(=O)c2ccccc2F)cc1` is lower in melting point: 175 to 176 °C for the first, 128 to 130 °C for the second.

First: CC(=O)N1CCN(CCCOc2ccc(N3CCN(c4ccc5nnc(C(F)(F)F)n5n4)CC3)cc2)CC1
Second: CC(=O)N1CCN(c2cccc(O)c2)CC1
The melting point of the first is lower: 162 °C for the first, 186 °C for the second.

First: CC(Cl)=CCC1CCC2C(C=CC3=CCCc4c3n2c2ccncc42)C1 (configuration not stated)
Second: CCn1ncc2c(NCC3CCCCC3)c3cc(C(=O)OC)ccc3nc21
The melting point of the first is lower: 130 to 132 °C for the first, 275 to 277 °C for the second.

First: CCn1cc(C(=O)O)c(=O)c2cc(F)c(N3CCN(C(=O)OC(OC(=O)c4ccccc4)C(=O)OC(C)C)CC3)cc21 (configuration not stated)
Second: CCCCc1nc2cc(Cl)cc(C(=O)O)c2n1C(C)c1ccc(C(=O)O)cc1 (configuration not stated)
The melting point of the first is lower: 135 to 143 °C for the first, 312 to 315 °C for the second.

`C=Cc1ccc2nc(Cl)c(S(N)(=O)=O)n2n1` and `CSc1nn2c(N)cc(C)nc2c1S(=O)(=O)c1ccc(F)cc1` cannot be ordered by melting point: 229 to 233 °C for the first, > 230 °C for the second.

First: COc1ccc(C(=O)NCc2ccc(C(=O)O)cc2)cc1C12CC3CC(CC(C3)C1)C2
Second: COCCC1(C(=O)N[C@@H](Cc2ccc(NC(=O)c3cc(C#N)ccc3Cl)cc2)C(=O)OC)CCCC1
The melting point of the first is higher: 286 to 287 °C for the first, 172 to 175 °C for the second.

First: CCCCOc1nc(N)nc2[nH]cnc12
Second: CCOC(=O)c1c[nH]nc1-c1ccc(Cl)cc1
The melting point of the first is higher: 165 °C for the first, 95 to 100 °C for the second.

First: CC(=O)NC[C@H]1CN(c2ccc(-c3nc(Cn4ccnc4)co3)c(F)c2)C(=O)O1
Second: Cc1oc(-c2ccccc2)nc1CCC(=NO)c1ccc(CCCC2OC(=O)NC2=O)cc1 (configuration not stated)
The melting point of the first is higher: 198 to 200 °C for the first, 185 to 186 °C for the second.

Compared with `O=C(O)C(=O)CC(=O)c1cccn1Cc1cccc(F)c1`, `CC(C(=O)O)c1ccc(Cc2ccccc2CC(=O)O)cc1` (configuration not stated) is lower in melting point: 147 to 149 °C for the first, 135 to 137 °C for the second.

First: CCN1CCCc2cc(C=C3SC(=O)NC3=O)ccc21
Second: O=C1CCC2=C(CCc3cccc(F)c32)N1
The melting point of the first is higher: 238 to 241 °C for the first, 199 °C for the second.

First: CCN(CC)c1ccc(C2(c3ccc(N(CC)CC)cc3N(CC)CC)OC(=O)c3ccccc32)c(C)c1 (configuration not stated)
Second: CC(C)Cn1c(=O)n(C)c(=O)c2c(SCCCO)n(Cc3ccccc3CS(=O)(=O)c3ccccc3)nc21
The melting point of the first is higher: 149 to 151 °C for the first, 50 °C for the second.

Compared with `CC(C)(C)OC(=O)c1ccc(OCCNC(=O)C2Cc3ccccc3N2S(=O)(=O)c2ccc(-c3ccc(F)cc3Cl)cc2)cc1` (configuration not stated), `Cc1oc(-c2ccc(S(C)(=O)=O)cc2)c(Oc2ccc(Cl)cc2)c(=O)c1Cl` is higher in melting point: 78 °C for the first, 274 °C for the second.

First: Cc1nc(C(c2c(Cl)cccc2Cl)n2cncn2)nc(C)c1N (configuration not stated)
Second: CC(C(N)=O)c1ccc2c(c1)C(=O)Cc1c(Cl)cccc1S2 (configuration not stated)
The melting point of the first is lower: 158 to 159 °C for the first, 195 to 196 °C for the second.

First: CNC(=S)n1nc(NC(C)=O)nc1N
Second: COc1nc(NC(=O)NS(=O)(=O)CC(C)Cl)nc(OC)n1 (configuration not stated)
The melting point of the first is higher: > 300 °C for the first, 139 to 141 °C for the second.

Compared with `COC[C@H]1C[C@H]1c1ccccc1` (relative stereo), `c1ccc(C2NCCOC2c2ccccc2)cc1` (configuration not stated) is higher in melting point: 46 to 50 °C for the first, 70 to 72 °C for the second.

First: CCCOCCOC(=O)C1=C(C)NC(C)=C(S(=O)(=O)NC(C)C)C1c1cccc([N+](=O)[O-])c1 (configuration not stated)
Second: COC(=O)CCCC#Cc1cc(Cl)ccc1NS(=O)(=O)c1ccc2c(c1)C(C)(C)CCC2(C)C
The melting point of the first is higher: 155 to 158 °C for the first, 113 to 115 °C for the second.

Compared with `CCC(C)(CC)C(=O)O[C@H]1C[C@H](O)C=C2C=C[C@H](C)[C@H](CC[C@@H]3C[C@@H](O)CC(=O)O3)[C@H]21`, `CCCCc1c2c(nc3cc(F)c(F)cc13)-c1cc3c(c(=O)n1C2)COC(=O)CC3(O)CC` (configuration not stated) is higher in melting point: 152 to 154 °C for the first, > 275 °C for the second.

Compared with `CC1(C)CC(=O)c2cc[nH]c2C1`, `O=C1Cc2cc(Cl)ccc2Oc2ccc(F)cc21` is lower in melting point: 177 to 178 °C for the first, 91 to 92 °C for the second.

First: CCC(=O)Nc1ccc2c(Nc3cccc(Br)c3)ncnc2c1
Second: CCOC(=O)N1CCC(NC(=S)Nc2cncnc2NCc2ccco2)CC1
The melting point of the first is higher: 282 to 283 °C for the first, 193 °C for the second.

Compared with `N#Cc1[nH]c(-c2ccc(Cl)cc2)c(S(=O)(=O)C(F)(F)F)c1Br`, `O=C(O)C=C(Oc1ccc(OC(F)(F)F)cc1)C(=O)O` is higher in melting point: 170 to 185 °C for the first, 208 to 210 °C for the second.

`COc1cc(OC)c2c(=O)c(OCCOc3ccc(C(C)=C4SC(=O)NC4=O)cc3)c(-c3ccc(OC)c(OC)c3)oc2c1` and `CC1CCCC(C)N1Cc1ccc(COc2cccc3c2CN(C2CCC(=O)NC2=O)C3=O)cc1` (configuration not stated) cannot be ordered by melting point: 205 to 206 °C for the first, 205 to 207 °C for the second.

First: C=Cc1cnc(C)c(OC(C)=O)c1CSC(C)=O
Second: C=C(C)C(=O)OCc1c(Br)c(Br)c(Br)c(Br)c1COC(=O)C(=C)C
The melting point of the first is higher: 72 to 73 °C for the first, 64 to 66 °C for the second.

Compared with `CCC1=Nc2c(C)nn(C)c2C2=NCCN12`, `CCCC(CCC)n1c(CC)nc2c1C(=O)N(C)C(C)N2c1ccc(Cl)cc1Cl` (configuration not stated) is lower in melting point: 148 to 150 °C for the first, 144 to 146 °C for the second.

First: N=C(N)N1CCN(C23CC4CC(CC(C4)C2)C3)CC1
Second: COCCOC(=O)C1CCCCC1C(=O)Nc1cc(OC(C)C)c(Cl)cc1F (configuration not stated)
The melting point of the first is higher: 182 to 186 °C for the first, 58 to 60 °C for the second.

First: Oc1cc(O)c2c(-c3cc(F)cc(F)c3)c(Br)oc2c1
Second: FC(F)(F)C1(c2cc(Cl)cc(Cl)c2)CCN(c2ccc(-n3cnnn3)c(Br)c2)C1 (configuration not stated)
The melting point of the first is lower: 121 to 122 °C for the first, 193 to 194 °C for the second.

First: C=CCOC(=O)c1c(Oc2nc(OC)cc(OC)n2)ccc2[nH]c(C)c(N)c12
Second: CCNC(=O)N1c2ccccc2-c2noc3c2C1CCC3 (configuration not stated)
The melting point of the first is lower: 132 to 135 °C for the first, 189 °C for the second.

With `CC(=O)NC1C(NC(=O)NCCCl)OC(CO)C(O)C1O` (configuration not stated) the melting point was 181 to 182 °C.
